Data: article PMC11219945, “Assessing genotoxic effects of chemotherapy agents by a robust in vitro assay based on mass spectrometric quantification of γ-H2AX in HepG2 cells” (Frontiers in Pharmacology, 2024)

What was measured:
γ-H2AX in HepG2 cells [1] = assay: γ-H2AX MS assay, dose-effect relationship in HepG2 cells; settings: human, 24 h
Experimental: Human hepatoblastoma cells (HepG2) were cultivated in DMEM medium under standard conditions (37°C in a 5% CO2 atmosphere). The culturing medium was added with 10% FBS, 100 U/mL penicillin and 100 μg/mL streptomycin.
In accordance to our previous study, cells were exposed to the chemotherapeutic agent by adding a proper volume of chemotherapeutic agent stock solution to the fresh medium without serum. Controls were treated with DMSO (0.1%) in medium. Independent biological experiments with three technical replicates were conducted.
The cells were then treated with different chemotherapy agents in serum-free medium. For a dose-effect relationship experiment, cells were exposed to each agent at either of three concentrations with a 10-fold increase for 24 h. For the time-effect relationship experiment of nine tested chemotherapy agents, cells were exposed to selected chemotherapy agents at 0.5, 1, 2, 4, 8, 12, and 24 h, with the concentration of 100 μM. Independent biological experiments with three technical replicates were performed.
(§1) The quantification of γ-H2AX was carried out according to the previous report ([Qu et al., 2021]). In short, the cell clumps were collected after a certain period of cell culture and histones were obtained by acid extraction. After nuclear isolation, histone extraction, trypsin digestion in the solution, and desalting, the peptide sample from the carboxy terminus of H2AX was analyzed. LC–MS/MS analysis was conducted using a QTRAP 5500 (AB Sciex, Framingham, United States) with an ACQUITY UPLC system (Waters Co., Manchester, United Kingdom). Chromatographic separation was carried out with an ACQUITY UPLC BEH C18 column (100 mm × 2.1 mm, 1.7 μm). The column temperature was maintained at 40°C. A 10 μL sample aliquot was injected for analysis. Mobile phases A and B were 0.1% FA in distilled H2O and acetonitrile, respectively. […] The eluent composition was maintained for 2 min, after which the system returned to 1% B and was re-equilibrated for 2 min. The eluates in the first 1 min were switched to waste to prevent contaminating the ion source. The electrospray ionization source was operated in positive mode using nitrogen as the nebulizing gas. All experiments were performed independently in at least triplicate.
To this end, we firstly examined the cytotoxicity of 34 chemotherapy agents, all of which were already well classified in terms of diverse characteristics. These tested chemotherapy agents were serially diluted for exposure to check the effects on cell viability.

[2] = combination of in vitro mouse lymphoma, chromosomal aberration, and micronucleus tests; cited from earlier work
[3] = parameters: method as in earlier work; settings: ref IARC; cited from earlier work
γ-H2AX in HepG2 cells [4] = assay: γ-H2AX time-effect relationship / DNA repair kinetics (k, t50) in HepG2 cells; assay type: cell-based, Human; parameters: k (speed of γ-H2AX descending): unit not given here; settings: 100 μM, 0.5–8 h time-dependent kinetics
Experimental: The cells were then treated with different chemotherapy agents in serum-free medium. […] Independent biological experiments with three technical replicates were performed.
as §1, with “In” for “The quantification of γ-H2AX was carried out according to the previous report ([Qu et al., 2021]). In”
Here, we estimated k and t50 after exposure to nine representative chemotherapy agents based on the 0.5–8 h γ-H2AX time-dependent kinetics (Figure 5) and then obtained these parameters to describe each agent DSB repair capacity using the functions optim and optimize in R language.

Row | SMILES | maximum γ-H2AX value within the selected concentration range (γ-H2AX in HepG2 cells [1]) | In vitro assays (genotoxicity) [2] | IARC classification group [3] | k (speed of γ-H2AX descending) (γ-H2AX in HepG2 cells [4]) | t50 (time required for γ-H2AX to drop to half of the maximum value) (γ-H2AX in HepG2 cells [4]) [h]
1 | COc1cccc2c1C(=O)c1c(O)c3c(c(O)c1C2=O)C[C@@](O)(C(C)=O)C[C@@H]3O[C@H]1C[C@H](N)[C@H](O)[C@H](C)O1 [Daunorubicin] | 23 | + | 2B | 0.139 | 3.344
2 | COc1cccc2c1C(=O)c1c(O)c3c(c(O)c1C2=O)C[C@@](O)(C(=O)CO)C[C@@H]3O[C@H]1C[C@H](N)[C@H](O)[C@H](C)O1 [Doxorubicin] | 21 | + | 2A | 0.088 | 4.269
